{"source": "patent US20060084688A1", "about": "“Aromatic sulfone hydroxamic acid metalloprotease inhibitor” (priority 1997, published 2006)", "assay_in_all_cases": "biochemical", "conditions_in_all_cases": "Inhibition Table B", "key": {"[1]": {"biological_target": "recombinant human MMP-13 (Homo sapiens, UniProt P45452)"}, "[2]": {"biological_target": "T1, recombinant human MMP-1 (Homo sapiens, UniProt P03956)", "T1 construct": "made in house; host or cells: transfected HT-1080 cells", "T1 sequence (P03956 100-469)": "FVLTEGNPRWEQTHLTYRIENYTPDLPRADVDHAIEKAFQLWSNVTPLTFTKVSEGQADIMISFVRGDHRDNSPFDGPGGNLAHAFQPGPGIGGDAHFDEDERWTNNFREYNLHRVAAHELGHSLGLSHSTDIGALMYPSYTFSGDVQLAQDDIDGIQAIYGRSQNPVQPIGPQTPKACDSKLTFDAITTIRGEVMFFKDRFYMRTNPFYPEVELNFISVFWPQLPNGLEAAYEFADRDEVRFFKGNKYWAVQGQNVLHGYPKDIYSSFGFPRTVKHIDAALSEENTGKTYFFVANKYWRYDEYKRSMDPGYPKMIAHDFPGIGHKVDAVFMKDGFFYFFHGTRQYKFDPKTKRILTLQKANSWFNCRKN"}, "[3]": {"biological_target": "T2, recombinant human MMP-2 (Homo sapiens, UniProt P08253)", "T2 sequence (P08253 110-660)": "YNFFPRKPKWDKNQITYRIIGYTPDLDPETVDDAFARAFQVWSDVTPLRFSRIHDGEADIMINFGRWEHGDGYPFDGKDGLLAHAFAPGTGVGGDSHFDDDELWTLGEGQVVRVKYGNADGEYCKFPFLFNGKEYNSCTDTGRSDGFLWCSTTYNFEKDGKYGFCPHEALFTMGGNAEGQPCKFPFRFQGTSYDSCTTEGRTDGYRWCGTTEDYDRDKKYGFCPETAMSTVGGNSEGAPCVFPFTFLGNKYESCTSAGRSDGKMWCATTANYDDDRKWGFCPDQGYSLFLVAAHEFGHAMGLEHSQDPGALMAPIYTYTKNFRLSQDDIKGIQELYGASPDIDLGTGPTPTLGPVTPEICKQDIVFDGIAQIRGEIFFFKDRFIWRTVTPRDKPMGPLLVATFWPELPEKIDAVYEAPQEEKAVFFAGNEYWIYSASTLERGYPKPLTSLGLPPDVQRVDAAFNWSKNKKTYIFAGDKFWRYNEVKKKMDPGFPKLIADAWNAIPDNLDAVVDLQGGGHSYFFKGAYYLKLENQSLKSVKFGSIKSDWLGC"}}, "note": "pIC50: −log10 of the molar value. Structures can show the parent of a compound that is named as a salt."}
{"smiles": "O=C(C1CCCN(c2ccc(S(=O)(=O)C3(C(=O)NO)CCOCC3)cc2)C1)N1CCC(N2CCCC2)CC1", "note": "(stereo not drawn) [Example 171]", "values": [{"measurement": "pIC50", "setting": "[1]", "result": "< 7.00"}, {"measurement": "pIC50", "setting": "[2]", "result": "< 5.00"}, {"measurement": "pIC50", "setting": "[3]", "result": "< 6.00"}]}
{"smiles": "O=C(C1CCN(c2ccc(S(=O)(=O)C3(C(=O)NO)CCOCC3)cc2)CC1)N(Cc1ccccc1)Cc1ccccc1", "note": "[Example 198]", "values": [{"measurement": "pIC50", "setting": "[1]", "result": 7.84}, {"measurement": "pIC50", "setting": "[2]", "result": "< 5.00"}, {"measurement": "pIC50", "setting": "[3]", "result": 6.57}]}
{"smiles": "CC1(C)C[C@@H]2C[C@@](C)(CN2C(=O)C2CCCN(c3ccc(S(=O)(=O)C4(C(=O)NO)CCOCC4)cc3)C2)C1", "note": "(stereo partly drawn) [Example 163]", "values": [{"measurement": "pIC50", "setting": "[1]", "result": 7.11}, {"measurement": "pIC50", "setting": "[2]", "result": "< 5.00"}, {"measurement": "pIC50", "setting": "[3]", "result": 5.40}]}
{"smiles": "CC1(C)C[C@@H]2C[C@@](C)(CN2C(=O)C2CCN(c3ccc(S(=O)(=O)C4(C(=O)NO)CCOCC4)cc3)CC2)C1", "note": "[Example 164]", "values": [{"measurement": "pIC50", "setting": "[1]", "result": 7.70}, {"measurement": "pIC50", "setting": "[2]", "result": "< 5.00"}, {"measurement": "pIC50", "setting": "[3]", "result": 5.76}]}
{"smiles": "O=C(NO)C1(S(=O)(=O)c2ccc(-c3ccc(Cl)cc3)cc2)CCOCC1", "note": "[Example 216]", "values": [{"measurement": "pIC50", "setting": "[1]", "result": "> 9.00"}, {"measurement": "pIC50", "setting": "[2]", "result": 6.00}, {"measurement": "pIC50", "setting": "[3]", "result": "> 9.00"}]}
{"smiles": "C#CCN1CCC(C(=O)O)(S(=O)(=O)c2ccc(Sc3ccc(Cl)cc3)cc2)CC1", "note": "[Example 44a, 4-[[4-(4-chlorophenyl)thio]phenyl)sulfonyl]-1-(propynyl)-4-piperidinecarboxylic acid, monohydrochloride]", "values": [{"measurement": "pIC50", "setting": "[1]", "result": 9.70}, {"measurement": "pIC50", "setting": "[2]", "result": "< 5.00"}, {"measurement": "pIC50", "setting": "[3]", "result": "> 10.00"}]}
{"smiles": "CCOC(=O)C1CCN(C(=O)C2CCN(c3ccc(S(=O)(=O)C4(C(=O)NO)CCOCC4)cc3)CC2)CC1", "note": "[Example 152]", "values": [{"measurement": "pIC50", "setting": "[1]", "result": 7.78}, {"measurement": "pIC50", "setting": "[2]", "result": "< 5.00"}, {"measurement": "pIC50", "setting": "[3]", "result": 5.62}]}
{"smiles": "O=C(C1CCN(c2ccc(S(=O)(=O)C3(C(=O)NO)CCOCC3)cc2)CC1)N1CCC(c2ccccc2)CC1", "note": "[Example 192]", "values": [{"measurement": "pIC50", "setting": "[1]", "result": 8.00}, {"measurement": "pIC50", "setting": "[2]", "result": "< 5.00"}, {"measurement": "pIC50", "setting": "[3]", "result": 6.48}]}
{"smiles": "CCOC(=O)C1CCN(C(=O)C2CCCN(c3ccc(S(=O)(=O)C4(C(=O)NO)CCOCC4)cc3)C2)CC1", "note": "(stereo not drawn) [Example 159]", "values": [{"measurement": "pIC50", "setting": "[1]", "result": 7.81}, {"measurement": "pIC50", "setting": "[2]", "result": "< 5.00"}, {"measurement": "pIC50", "setting": "[3]", "result": 5.60}]}
{"smiles": "O=C(NCCO)C1CCCN(c2ccc(S(=O)(=O)C3(C(=O)NO)CCOCC3)cc2)C1", "note": "(stereo not drawn) [Example 141]", "values": [{"measurement": "pIC50", "setting": "[1]", "result": "< 7.00"}, {"measurement": "pIC50", "setting": "[2]", "result": "< 5.00"}, {"measurement": "pIC50", "setting": "[3]", "result": "< 7.00"}]}
{"smiles": "O=C(C1CCN(c2ccc(S(=O)(=O)C3(C(=O)NO)CCOCC3)cc2)CC1)N1CCc2ccccc2C1", "note": "[Example 199]", "values": [{"measurement": "pIC50", "setting": "[1]", "result": 8.85}, {"measurement": "pIC50", "setting": "[2]", "result": "< 5.00"}, {"measurement": "pIC50", "setting": "[3]", "result": 6.81}]}
{"smiles": "N[C@H]1CCN(C(=O)C2CCN(c3ccc(S(=O)(=O)C4(C(=O)NO)CCOCC4)cc3)CC2)C1", "note": "[Example 175]", "values": [{"measurement": "pIC50", "setting": "[1]", "result": "< 7.00"}, {"measurement": "pIC50", "setting": "[3]", "result": "< 6.00"}]}
{"smiles": "C[C@@H]1CN(C(=O)C2CCCN(c3ccc(S(=O)(=O)C4(C(=O)NO)CCOCC4)cc3)C2)C[C@H](C)O1", "note": "(stereo partly drawn) [Example 169]", "values": [{"measurement": "pIC50", "setting": "[1]", "result": "< 7.00"}, {"measurement": "pIC50", "setting": "[3]", "result": "< 6.00"}]}
{"smiles": "O=C(NCc1ccncc1)C1CCN(c2ccc(S(=O)(=O)C3(C(=O)NO)CCOCC3)cc2)CC1", "note": "[Example 195]", "values": [{"measurement": "pIC50", "setting": "[1]", "result": 7.84}]}
{"smiles": "O=C(NC1CCCCCC1)C1CCN(c2ccc(S(=O)(=O)C3(C(=O)NO)CCOCC3)cc2)CC1", "note": "[Example 194]", "values": [{"measurement": "pIC50", "setting": "[1]", "result": 8.10}, {"measurement": "pIC50", "setting": "[3]", "result": 6.78}]}
{"smiles": "CCCCNC(=O)C1CCN(c2ccc(S(=O)(=O)C3(C(=O)NO)CCOCC3)cc2)CC1", "note": "[Example 181]", "values": [{"measurement": "pIC50", "setting": "[1]", "result": 8.21}, {"measurement": "pIC50", "setting": "[3]", "result": 6.92}]}
{"smiles": "O=C(C1CCCN(c2ccc(S(=O)(=O)C3(C(=O)NO)CCOCC3)cc2)C1)N1CCOCC1", "note": "(stereo not drawn) [Example 140]", "values": [{"measurement": "pIC50", "setting": "[1]", "result": 7.22}, {"measurement": "pIC50", "setting": "[2]", "result": "< 5.00"}]}
{"smiles": "O=C(C1CCN(c2ccc(S(=O)(=O)C3(C(=O)NO)CCOCC3)cc2)CC1)N1CCCC1", "note": "[Example 179]", "values": [{"measurement": "pIC50", "setting": "[2]", "result": "< 5.00"}, {"measurement": "pIC50", "setting": "[3]", "result": 6.36}]}
{"smiles": "C[C@@H]1CN(C(=O)C2CCN(c3ccc(S(=O)(=O)C4(C(=O)NO)CCOCC4)cc3)CC2)C[C@H](C)O1", "note": "[Example 176]", "values": [{"measurement": "pIC50", "setting": "[1]", "result": 7.60}, {"measurement": "pIC50", "setting": "[3]", "result": 6.40}]}
{"smiles": "CNC(=O)C1CCCN(c2ccc(S(=O)(=O)C3(C(=O)NO)CCOCC3)cc2)C1", "note": "(stereo not drawn) [Example 139]", "values": [{"measurement": "pIC50", "setting": "[1]", "result": 7.60}, {"measurement": "pIC50", "setting": "[2]", "result": "< 5.00"}]}
{"smiles": "O=C(NCCO)C1CCN(c2ccc(S(=O)(=O)C3(C(=O)NO)CCOCC3)cc2)CC1", "note": "[Example 132]", "values": [{"measurement": "pIC50", "setting": "[2]", "result": "< 5.00"}, {"measurement": "pIC50", "setting": "[3]", "result": 6.38}]}
{"smiles": "O=C(C1CCCN(c2ccc(S(=O)(=O)C3(C(=O)NO)CCOCC3)cc2)C1)N1CCCC2CCCCC21", "note": "(stereo not drawn) [Example 170]", "values": [{"measurement": "pIC50", "setting": "[1]", "result": "< 7.00"}, {"measurement": "pIC50", "setting": "[3]", "result": "< 6.00"}]}
